According to patent US20150105252A1, “SUBSTITUTED PYRAZOLES AS HERBICIDES” (E I DU PONT DE NEMOURS AND COMPANY, priority 2013, published 2015):

Experiments:
[1] = test system: velvetleaf; experiment: Test C postemergence; type: in vivo, Abutilon theophrasti; settings: for Plant response rating, Velvetleaf / Velvetleaf plant response rating: postemergence; for Velvetleaf plant response rating: scale 0 to 100; for Plant response rating (scale of 0 to 100 where 0 is no effect and 100 is complete control), Velvetleaf: Postemergence, 31 g ai/ha, visually evaluated after 13 to 15 days
Method in brief: (§1)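 Postemergence values come from plants sprayed at the 1- to 4-leaf stage (2–18 cm) in peat moss–vermiculite medium; preemergence values from seeds treated in a loam–sand blend. Both evaluated visually against controls after 13–15 greenhouse days, scale 0–100.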

[2] = test system: barnyardgrass; experiment: Test C postemergence; type: in vivo, Echinochloa crus-galli; settings: for Plant response rating (scale of 0 to 100 where 0 is no effect and 100 is complete control), Barnyardgrass: Postemergence, 31 g ai/ha, visually evaluated after 13 to 15 days; for Barnyardgrass plant response rating / Plant response rating, Barnyardgrass: postemergence; for Barnyardgrass plant response rating: 62 g ai/ha, scale 0 to 100
Method in brief: as §1

[3] = test system: oilseed rape; experiment: Test C postemergence; type: in vivo, Brassica napus; settings: for Oilseed Rape plant response rating / Plant response rating, Oilseed Rape: postemergence; for Oilseed Rape plant response rating: 62 g ai/ha, scale 0 to 100; for Plant response rating (scale of 0 to 100 where 0 is no effect and 100 is complete control), Oilseed Rape: Postemergence, 31 g ai/ha, visually evaluated after 13 to 15 days
Method in brief: as §1

[4] = test system: kochia; experiment: Test C postemergence; type: in vivo, Kochia scoparia; settings: for Plant response rating (scale of 0 to 100 where 0 is no effect and 100 is complete control), Kochia: Postemergence, 31 g ai/ha, visually evaluated after 13 to 15 days; for Kochia plant response rating / Plant response rating, Kochia: postemergence; for Kochia plant response rating: 62 g ai/ha, scale 0 to 100
Method in brief: as §1

[5] = test system: velvetleaf; experiment: Test C preemergence; type: in vivo, Abutilon theophrasti; settings: for Velvetleaf plant response rating / Plant response rating, Velvetleaf: preemergence; for Plant response rating, Velvetleaf: scale 0 to 100, 0 = no effect, 100 = complete control
Method in brief: as §1

[6] = test system: blackgrass; experiment: Test C postemergence; type: in vivo, Alopecurus myosuroides; settings: for Plant response rating (scale of 0 to 100 where 0 is no effect and 100 is complete control), Blackgrass: Postemergence, 31 g ai/ha, visually evaluated after 13 to 15 days; for Blackgrass plant response rating / Plant response rating, Blackgrass: postemergence; for Blackgrass plant response rating: 62 g ai/ha, scale 0 to 100
Method in brief: as §1

[7] = test system: nutsedge, yellow; experiment: Test C preemergence; type: in vivo, Cyperus esculentus; settings: for Nutsedge, Yellow plant response rating / Plant response rating, Nutsedge, Yellow: preemergence; for Plant response rating, Nutsedge, Yellow: scale 0 to 100, 0 = no effect, 100 = complete control
Method in brief: as §1

[8] = test system: corn; experiment: Test C preemergence; type: in vivo, Zea mays; settings: for Corn plant response rating / Plant response rating, Corn: preemergence; for Plant response rating, Corn: scale 0 to 100, 0 = no effect, 100 = complete control
Method in brief: as §1

[9] = test system: soybean; experiment: Test C postemergence; type: in vivo, Glycine max; settings: for Plant response rating, Soybean / Soybean plant response rating: postemergence; for Plant response rating (scale of 0 to 100 where 0 is no effect and 100 is complete control), Soybean: Postemergence, 31 g ai/ha, visually evaluated after 13 to 15 days
Method in brief: as §1

[10] = test system: wheat; experiment: Test A postemergence; type: in vivo, Triticum aestivum
Method in brief: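 Visual injury ratings, 0 = no effect to 100 = complete control, taken about 10 days after treatment against untreated controls. Test chemicals, in a non-phytotoxic surfactant-containing solvent, were sprayed onto soil preemergence or onto one- to two-leaf plants (2–10 cm) postemergence, in loam–sand soil under greenhouse conditions.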

[11] = test system: waterhemp; experiment: Test C preemergence; type: in vivo, Amaranthus rudis; settings: for Waterhemp plant response rating / Plant response rating, Waterhemp: preemergence; for Plant response rating, Waterhemp: scale 0 to 100, 0 = no effect, 100 = complete control
Method in brief: as §1

[12] = test system: lambsquarters; experiment: Test C preemergence; type: in vivo, Chenopodium album; settings: for Lambsquarters plant response rating / Plant response rating, Lambsquarters: preemergence; for Plant response rating, Lambsquarters: scale 0 to 100, 0 = no effect, 100 = complete control
Method in brief: as §1

[13] = 250 g ai/ha, scale 0 to 100 (0 no effect, 100 complete control)
[14] = 125 g ai/ha, scale 0 to 100, 0 no effect, 100 complete control
[15] = 31 g ai/ha, visual rating, scale 0 to 100 (0 no effect, 100 complete control), 13 to 15 days
[16] = 62 g ai/ha, scale 0 to 100 (0 no effect, 100 complete control), 13 to 15 days
[17] = 250 g ai/ha, scale 0 to 100, 0 is no effect, 100 is complete control
[18] = Postemergence, 500 g ai/ha, 0 to 100 scale (0 no effect, 100 complete control)
[19] = 125 g ai/ha, scale 0 to 100, 0 is no effect, 100 is complete control
[20] = postemergence, 125 g ai/ha, about 10 days, visual rating on 0 to 100 scale (0 no effect, 100 complete control)

## CCCc1cc(C(=O)NC2CC2)nn1Cc1ccnc(OC(F)F)c1 [Compound 205]
[1]; [13]
  Plant response rating, Velvetleaf: 40
[1]
  Velvetleaf plant response rating: 40
[2]
  Plant response rating (scale of 0 to 100 where 0 is no effect and 100 is complete control), Barnyardgrass: 10
  Barnyardgrass plant response rating: 10
[2]; [13]
  Plant response rating, Barnyardgrass: 50
[2]; [14]
  Plant response rating, Barnyardgrass: 15
[3]
  Oilseed Rape plant response rating: 25
[3]; [13]
  Plant response rating, Oilseed Rape: 50
[3]; [14]
  Plant response rating, Oilseed Rape: 50
[4]
  Plant response rating (scale of 0 to 100 where 0 is no effect and 100 is complete control), Kochia: 85
  Kochia plant response rating: 90
[4]; [13]
  Plant response rating, Kochia: 95
[4]; [14]
  Plant response rating, Kochia: 95
[5]; [15]
  Velvetleaf plant response rating: 55
[5]; [16]
  Velvetleaf plant response rating: 100
[5]; 125 g ai/ha, 13 to 15 days
  Plant response rating, Velvetleaf: 100
[5]; [17]
  Velvetleaf plant response rating: 100
[6]
  Plant response rating (scale of 0 to 100 where 0 is no effect and 100 is complete control), Blackgrass: 5
  Blackgrass plant response rating: 5
[6]; [13]
  Plant response rating, Blackgrass: 30
[6]; [14]
  Plant response rating, Blackgrass: 5
[7]; [15]
  Nutsedge, Yellow plant response rating: 40
[7]; [16]
  Nutsedge, Yellow plant response rating: 65
[7]; 125 g ai/ha, 13 to 15 days
  Plant response rating, Nutsedge, Yellow: 75
[7]; [17]
  Nutsedge, Yellow plant response rating: 90
[8]; [15]
  Corn plant response rating: 70
[8]; [16]
  Corn plant response rating: 70
[8]; 125 g ai/ha, 13 to 15 days
  Plant response rating, Corn: 80
[8]; [17]
  Corn plant response rating: 98
[9]; [13]
  Plant response rating, Soybean: 90
[9]; [14]
  Soybean plant response rating: 70
[10]; Postemergence, 125 g ai/ha, 0 to 100 scale, 0 no effect, 100 complete control
  Wheat plant response rating: 70
[10]; [18]
  Wheat plant response rating: 90
[11]; [15]
  Waterhemp plant response rating: 100
[11]; [16]
  Waterhemp plant response rating: 100
[11]; 125 g ai/ha, 13 to 15 days
  Plant response rating, Waterhemp: 100
[11]; [17]
  Waterhemp plant response rating: 100
[12]; [15]
  Lambsquarters plant response rating: 85
[12]; [16]
  Lambsquarters plant response rating: 95
[12]; 125 g ai/ha, 13 to 15 days
  Plant response rating, Lambsquarters: 100
[12]; [17]
  Lambsquarters plant response rating: 100

## CCc1cc(C(=O)NOC(C)C)nn1Cc1ccnc(OC(F)F)c1 [Compound 126]
[1]
  Plant response rating (scale of 0 to 100 where 0 is no effect and 100 is complete control), Velvetleaf: 30
[1]; 62 g ai/ha
  Velvetleaf plant response rating: 25
[1]; [13]
  Plant response rating, Velvetleaf: 70
[1]; [14]
  Plant response rating, Velvetleaf: 35
[2]
  Plant response rating (scale of 0 to 100 where 0 is no effect and 100 is complete control), Barnyardgrass: 5
  Barnyardgrass plant response rating: 5
[2]; [13]
  Plant response rating, Barnyardgrass: 40
[2]; [14]
  Plant response rating, Barnyardgrass: 10
[3]
  Plant response rating (scale of 0 to 100 where 0 is no effect and 100 is complete control), Oilseed Rape: 45
  Oilseed Rape plant response rating: 50
[3]; [13]
  Plant response rating, Oilseed Rape: 70
[3]; [14]
  Plant response rating, Oilseed Rape: 60
[4]
  Plant response rating (scale of 0 to 100 where 0 is no effect and 100 is complete control), Kochia: 55
  Kochia plant response rating: 50
[4]; [13]
  Plant response rating, Kochia: 65
[4]; [14]
  Plant response rating, Kochia: 65
[5]; Preemergence, 250 g ai/ha
  Plant response rating (scale of 0 to 100), Velvetleaf: 100
[5]; [15]
  Velvetleaf plant response rating: 65
[5]; [16]
  Velvetleaf plant response rating: 85
[5]; [19]
  Velvetleaf plant response rating: 100
[6]
  Plant response rating (scale of 0 to 100 where 0 is no effect and 100 is complete control), Blackgrass: 5
  Blackgrass plant response rating: 5
[6]; [13]
  Plant response rating, Blackgrass: 25
[6]; [14]
  Plant response rating, Blackgrass: 20
[7]; Preemergence, 250 g ai/ha
  Plant response rating (scale of 0 to 100), Nutsedge, Yellow: 90
[7]; [15]
  Nutsedge, Yellow plant response rating: 25
[7]; [16]
  Nutsedge, Yellow plant response rating: 45
[7]; [19]
  Nutsedge, Yellow plant response rating: 75
[8]; Preemergence, 250 g ai/ha
  Plant response rating (scale of 0 to 100), Corn: 98
[8]; [15]
  Corn plant response rating: 25
[8]; [16]
  Corn plant response rating: 65
[8]; [19]
  Corn plant response rating: 90
[9]
  Plant response rating (scale of 0 to 100 where 0 is no effect and 100 is complete control), Soybean: 40
[9]; 62 g ai/ha, scale 0 to 100
  Soybean plant response rating: 45
[9]; [13]
  Plant response rating, Soybean: 65
[9]; [14]
  Plant response rating, Soybean: 55
[10]; [18]
  Wheat plant response rating: 90
[10]; [20]
  Wheat plant response rating: 90
[11]; Preemergence, 250 g ai/ha
  Plant response rating (scale of 0 to 100), Waterhemp: 100
[11]; [15]
  Waterhemp plant response rating: 90
[11]; [16]
  Waterhemp plant response rating: 98
[11]; [19]
  Waterhemp plant response rating: 100
[12]; Preemergence, 250 g ai/ha
  Plant response rating (scale of 0 to 100), Lambsquarters: 100
[12]; [15]
  Lambsquarters plant response rating: 85
[12]; [16]
  Lambsquarters plant response rating: 98
[12]; [19]
  Lambsquarters plant response rating: 100

## CCCNC(=O)c1cc(OCC)n(Cc2ccnc(OC(F)F)c2)n1 [Compound 136]
[1]
  Plant response rating (scale of 0 to 100 where 0 is no effect and 100 is complete control), Velvetleaf: 30
[1]; 62 g ai/ha
  Velvetleaf plant response rating: 55
[1]; [13]
  Plant response rating, Velvetleaf: 85
[1]; [14]
  Plant response rating, Velvetleaf: 60
[2]
  Plant response rating (scale of 0 to 100 where 0 is no effect and 100 is complete control), Barnyardgrass: 5
  Barnyardgrass plant response rating: 5
[2]; [13]
  Plant response rating, Barnyardgrass: 45
[2]; [14]
  Plant response rating, Barnyardgrass: 5
[3]
  Plant response rating (scale of 0 to 100 where 0 is no effect and 100 is complete control), Oilseed Rape: 60
  Oilseed Rape plant response rating: 60
[3]; [13]
  Plant response rating, Oilseed Rape: 85
[3]; [14]
  Plant response rating, Oilseed Rape: 70
[4]
  Plant response rating (scale of 0 to 100 where 0 is no effect and 100 is complete control), Kochia: 90
  Kochia plant response rating: 90
[4]; [13]
  Plant response rating, Kochia: 90
[4]; [14]
  Plant response rating, Kochia: 90
[5]; [15]
  Velvetleaf plant response rating: 65
[5]; [16]
  Velvetleaf plant response rating: 100
[5]; 125 g ai/ha, 13 to 15 days
  Plant response rating, Velvetleaf: 100
[5]; [17]
  Velvetleaf plant response rating: 100
[6]
  Plant response rating (scale of 0 to 100 where 0 is no effect and 100 is complete control), Blackgrass: 5
  Blackgrass plant response rating: 10
[6]; [13]
  Plant response rating, Blackgrass: 40
[6]; [14]
  Plant response rating, Blackgrass: 15
[7]; [15]
  Nutsedge, Yellow plant response rating: 30
[7]; [16]
  Nutsedge, Yellow plant response rating: 35
[7]; 125 g ai/ha, 13 to 15 days
  Plant response rating, Nutsedge, Yellow: 50
[7]; [17]
  Nutsedge, Yellow plant response rating: 85
[8]; [15]
  Corn plant response rating: 35
[8]; [16]
  Corn plant response rating: 70
[8]; 125 g ai/ha, 13 to 15 days
  Plant response rating, Corn: 60
[8]; [17]
  Corn plant response rating: 85
[9]
  Plant response rating (scale of 0 to 100 where 0 is no effect and 100 is complete control), Soybean: 90
[9]; 62 g ai/ha, scale 0 to 100
  Soybean plant response rating: 70
[9]; [13]
  Plant response rating, Soybean: 95
[9]; [14]
  Plant response rating, Soybean: 95
[10]; [18]
  Wheat plant response rating: 90
[10]; [20]
  Wheat plant response rating: 60
[11]; [15]
  Waterhemp plant response rating: 85
[11]; [16]
  Waterhemp plant response rating: 100
[11]; 125 g ai/ha, 13 to 15 days
  Plant response rating, Waterhemp: 100
[11]; [17]
  Waterhemp plant response rating: 100
[12]; [15]
  Lambsquarters plant response rating: 98
[12]; [16]
  Lambsquarters plant response rating: 98
[12]; 125 g ai/ha, 13 to 15 days
  Plant response rating, Lambsquarters: 98
[12]; [17]
  Lambsquarters plant response rating: 100
